Measured values reported in patent US20250064056A1, “CONTACT PHEROMONE-CONTAINING COMPOSITION FOR CONTROLLING THRIPS, KIT COMPOSITION FOR CONTROLLING THRIPS, AND METHOD OF CONTROLLING THRIPS BY USING SAME” (Andong National University Industry-Academic Cooperation …, priority 2023, published 2025).

Columns and labels:
Type in all cases: in vivo
[1] = tested on: Frankliniella occidentalis; experiment: Outdoor pest control test on open-field peppers, F. occidentalis; conditions: for Contol efficacy (%) (control value) / Survival (%) Mean / Survival (%) I / Survival (%) II / Survival (%) III: 3 days after treatment, dose a.i. μg/mL: 7MT 100, Spinetoram 12.5; for Survival (%) Mean: mean of 3 replicates; for Survival (%) I: replicate I; for Survival (%) II: replicate II; for Survival (%) III: replicate III
Method: (§1) Each treatment was repeated three times using the egg mass method in open pepper production areas located in Songcheon-dong, Andong-si, Gyeongsangbuk-do. Each test group was pepper individuals, and the distance between these individuals was maintained at least 6 m. The amount of chemical agent sprayed on each pepper individual was 30 mL, and the chemical agent was sufficiently sprayed on the entire peppers. […] […] The control group was treated with a distilled chemical agent. The density of thrips was calculated before treatment and on days 1 and 3 after treatment. The classification of these three different thrips was carried out by using the shape identification method presented by Kim et al. (2021).
(§2) For the indoor behavioral experiment, one-way ANOVA analysis was performed using PROC GLM (SAS Institute, 1989). The effectiveness of outdoor pest control was confirmed by calculating the survival rate and performing […] and two-way ANOVA analysis. Comparison between treatment means was determined based on a Type I error probability of 0.05 using an LSD method.
(§3) A test was conducted to check the outdoor control efficiency by adding a contact pheromone causing behavior disruption to Spinetoram having a relatively high control efficiency against thrips. At the end of May 2023, when the test was conducted, Frankliniella occidentalis and Frankliniella intonsa appeared around peppers in open areas in the Andong region. By taking advantage of this situation, treatment with a chemical agent alone and treatment with a chemical agent/contact pheromone mixture were implemented. In the untreated control group, an increase in the density of two thrips was observed. However, in the mixed treatment with Spinetoram, an overall decrease in the density was clearly observed.
(§4) To analyze the results in detail, a control value on the 3rd day of treatment was calculated. […] The average survival rate was lowered in all treatment cases compared to no treatment cases. […] At this time, when the contact pheromone was added, the control value increased for both thrips.

Total thrips = experiment: Outdoor pest control test on open-field peppers, total thrips; conditions: 3 days after treatment, dose a.i. μg/mL: 7MT 100, Spinetoram 12.5; for Survival (%) Mean: mean of 3 replicates; for Survival (%) I: replicate I; for Survival (%) II: replicate II; for Survival (%) III: replicate III
Method: as §1, §2, §3, §4

Frankliniella intonsa [2] = experiment: Outdoor pest control test on open-field peppers, F. intonsa; conditions: for Contol efficacy (%) (control value) / Survival (%) Mean / Survival (%) I / Survival (%) II / Survival (%) III: 3 days after treatment, dose a.i. μg/mL: 7MT 100, Spinetoram 12.5; for Survival (%) Mean: mean of 3 replicates; for Survival (%) I: replicate I; for Survival (%) II: replicate II; for Survival (%) III: replicate III
Method: as §1, §2, §3, §4

[3] = tested on: Frankliniella occidentalis; experiment: Behavioral test (petri dish, treated vs control kidney bean feed), F. occidentalis; conditions: 10 μL on filter paper, 10 minutes, FIG. 1B
Method: (§5) FIGS. 1A, 1B, and 1C show the results of behavioral tests in a container for behavior analysis (A) for two types of thrips (F. occidentalis (B) and F. intonsa (C)), in the container for behavior analysis (A), a […] placed on a filter paper disk was treated with 7-methyltricosane (7TM), the control diet was treated with acid solvent, after 10 minutes, the number of thrips that reached each feed was counted, each treatment was repeated four times by exchanging the positions of the treatment and control groups, asterisk indicates a significant difference with type I error=0.05 (LSD test), and “NS” means no significant difference; and
(§6) A filter paper was unfolded in the behavior test site, and two kidney beans were placed away at a distance of 50 mm as bait. Each of the test substances was applied on top of each feed. In the test substance treatment, 10 μL of 7TM substance was sprayed onto 5 mm circular filter paper. In the case of the control group, the same volume of hexane was sprayed onto a filter paper as a test substance. Each circular filter paper differently treated was placed on any one of the two kidney beans. Next, test individuals were placed in the center 40 mm away from both feed sources. Afterward, the individuals having reached each feed were counted for 10 minutes at room temperature. 10 individuals were used in each test, and each test was repeated 4 times. The positions of the control group and the treatment group were exchanged in each repetition. […]
(§7) For the indoor behavioral experiment, one-way ANOVA analysis was performed using PROC GLM (SAS Institute, 1989). […] Comparison between treatment means was determined based on a Type I error probability of 0.05 using an LSD method.
(§8) To analyze the behavioral responses of thrips with affinity for a contact pheromone, a behavior analysis container (shown in FIG. 1(A)) was manufactured using a petri dish. Thrips were prepared to be near the treated feed, and after inducing the behavioral responses for 10 minutes, some of the thrips staying near the pheromone-treated feed were counted.

Frankliniella intonsa [4] = experiment: Behavioral test (petri dish, treated vs control kidney bean feed), F. intonsa; conditions: 10 μL on filter paper, 10 minutes, FIG. 1C
Method: as §5, §6, §7, §8

[5] = contact pheromone alone, 3rd day of treatment

Molecule	Contol efficacy (%) (control value) [1]	Survival (%) Mean [1] [%]	Survival (%) I [1] [%]	Survival (%) II [1] [%]	Survival (%) III [1] [%]	Contol efficacy (%) (control value) (Total thrips)	Survival (%) Mean (Total thrips) [%]	Survival (%) I (Total thrips) [%]	Survival (%) II (Total thrips) [%]	Survival (%) III (Total thrips) [%]	Contol efficacy (%) (control value) (Frankliniella intonsa [2])	Survival (%) Mean (Frankliniella intonsa [2]) [%]	Survival (%) I (Frankliniella intonsa [2]) [%]	Survival (%) II (Frankliniella intonsa [2]) [%]	Survival (%) III (Frankliniella intonsa [2]) [%]	also measured
Spinetoram [reference compound]	71.9	146.4	150.0	175.0	114.3	76.2	60.5	73.3	46.2	61.1	80.3	33.6	40.0	22.2	38.5	–
CCCCCCCCCCCCCCCCC(C)CCCCCC (centres unmarked) [7MT, 7-Methyltricosane]	31.2	358.3	500.0	300.0	275.0	12.4	222.2	300.0	233.3	133.3	32.2	115.7	133.3	150.0	63.6	density of thrips vs no treatment (in words) [1, 5]: it was not; behavioral response to pheromone-treated feed ([3]; F. occidentalis adult females): high preference; behavioral response to pheromone-treated feed ([3]; F. occidentalis adult males): avoiding feed sprayed with the contact pheromone; behavioral response to pheromone-treated feed ([3]; F. occidentalis second-instar larvae): did not show specific selection behavior; behavioral response to pheromone-treated feed (Frankliniella intonsa [4]; F. intonsa adult females): high preference; behavioral response to pheromone-treated feed (Frankliniella intonsa [4]; F. intonsa adult males): avoiding feed sprayed with the contact pheromone; behavioral response to pheromone-treated feed (Frankliniella intonsa [4]; F. intonsa second-instar larvae): did not show specific selection behavior; density of thrips vs no treatment (in words) (Frankliniella intonsa [2]; [5]): statistically significantly reduced
